Source: the NIST ThermoML archive (doi:10.1016/j.fluid.2015.05.032)
± gives the expanded uncertainty stated by the source.

What was measured:
[1] = refractive index (Na D-line) (dimensionless); conditions: 293.15 K; 101.33 kPa; Liquid; Standard Abbe refractometry
[2] = Liquid; for mass density: 298.15 K, 101.33 kPa, Vibrating tube method; for Normal boiling temperature: Ebulliometric method (Recirculating still)

## Cc1ccc(C)cc1 [1,4-dimethylbenzene]
[1]
  refractive index: 1.4952 ± 0.0004
[2]
  mass density: 856.5 ± 0.3 kg/m3
  Normal boiling temperature: 138.47 ± 0.2 °C

## CCC(C)OC(C)=O (configuration not stated) [1-methylpropyl ethanoate]
[1]
  refractive index: 1.3886 ± 0.0004
[2]
  mass density: 866.4 ± 0.3 kg/m3
  Normal boiling temperature: 111.93 ± 0.2 °C

## CC(=O)O [acetic acid]
[1]
  refractive index: 1.3718 ± 0.0004
[2]
  mass density: 1043.5 ± 0.3 kg/m3
  Normal boiling temperature: 117.93 ± 0.2 °C

## COC(C)=O [methyl ethanoate]
[1]
  refractive index: 1.3614 ± 0.0004
[2]
  mass density: 927.5 ± 0.3 kg/m3
  Normal boiling temperature: 56.7 ± 0.2 °C
